Results reported in patent publication US8883745B2, “C—glycolipids with enhanced Th-1 profile” (New York University, priority 2006, dated 2014).

Tests used:
Assay type in all cases: in vivo
[1] = tested on: IFN-γ; assay: IFN-γ levels in sera upon i.v. glycolipid administration to BALB/c mice (ELISA); set-up: IFN-γ levels, test 1 / IFN-γ levels, test 2 / IFN-γ levels, average / IFN-γ levels, Total: unit not given here
Procedure, shortened: (§1)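 Cytokine concentrations come from absorbance at 450 nm compared with known standards in a capture/biotinylated-detection ELISA with avidin-HRP and TMB. Sera, diluted 1:10, are drawn at several times up to 72 h after a single 1 μg i.v. glycolipid dose.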

[2] = tested on: IL-12; assay: IL-12 levels in sera upon i.v. glycolipid administration to C57BL/6 mice (ELISA); set-up: IL-12 levels, test 1 / IL-12 levels, test 2 / IL-12 levels, average / IL-12 levels, Total: unit not given here
Procedure, shortened: as §1

[3] = tested on: IL-4; assay: IL-4 levels in sera upon i.v. glycolipid administration to BALB/c mice (ELISA); set-up: unit not given here
Procedure, shortened: as §1

[4] = tested on: IL-4; assay: IL-4 levels in sera upon i.v. glycolipid administration to C57BL/6 mice (ELISA); set-up: unit not given here
Procedure, shortened: as §1

Structure (SMILES): CCCCCCCCCCCCCCCCCCCCCCCCCCCCC(=O)N[C@@H](/C=C/[C@H]1O[C@H](CO)[C@H](O)[C@H](O)[C@H]1O)[C@H](O)[C@H](O)CCCCCCCCCCCCCC [A-2, (3S,4S,5R)-1-C-(α-D-galactopyranosyl)-3-(N-nonacosanoylamino)-4,5-nonadec-(1,2-E)-enediol]
- IFN-γ/IL-4 (BALB/c) ([1]; BALB/c, ratio calculated from Tables 1-6): 43
- IFN-γ levels, average ([1]; BALB/c, serum, hour 0): 27
- IFN-γ levels, test 1 ([1]; BALB/c, serum, hour 0): 27
- IFN-γ levels, test 2 ([1]; BALB/c, serum, hour 0): 27
- IFN-γ levels, average ([1]; BALB/c, serum, hour 2): 234
- IFN-γ levels, test 1 ([1]; BALB/c, serum, hour 2): 197
- IFN-γ levels, test 2 ([1]; BALB/c, serum, hour 2): 271
- IFN-γ levels, average ([1]; BALB/c, serum, hour 6): 4185.5
- IFN-γ levels, test 1 ([1]; BALB/c, serum, hour 6): 3723
- IFN-γ levels, test 2 ([1]; BALB/c, serum, hour 6): 4648
- IFN-γ levels, average ([1]; BALB/c, serum, hour 12): 6418.5
- IFN-γ levels, test 1 ([1]; BALB/c, serum, hour 12): 7529
- IFN-γ levels, test 2 ([1]; BALB/c, serum, hour 12): 5308
- IFN-γ levels, average ([1]; BALB/c, serum, hour 24): 15500
- IFN-γ levels, test 1 ([1]; BALB/c, serum, hour 24): 16500
- IFN-γ levels, test 2 ([1]; BALB/c, serum, hour 24): 14500
- IFN-γ levels, average ([1]; BALB/c, serum, hour 48): 325.5
- IFN-γ levels, test 1 ([1]; BALB/c, serum, hour 48): 319
- IFN-γ levels, test 2 ([1]; BALB/c, serum, hour 48): 332
- IFN-γ levels, average ([1]; BALB/c, serum, hour 72): 62.5
- IFN-γ levels, test 1 ([1]; BALB/c, serum, hour 72): 59
- IFN-γ levels, test 2 ([1]; BALB/c, serum, hour 72): 66
- IFN-γ levels, Total ([1]; BALB/c, serum, total over hours 0-72): 26755
- effect: higher/extended IFN-γ and IL-12 with much lower IL-4 compared to α-GalCer (KRN) ([1]; C57BL/6 and BALB/c mice, 1 μg i.v.): particularly pronounced
- IL-12/IL-4 (B6) ([2]; C57BL/6, ratio calculated from Tables 1-6): 4.8
- IL-12 levels, average ([2]; C57BL/6, serum, hour 0): 5
- IL-12 levels, test 1 ([2]; C57BL/6, serum, hour 0): 5
- IL-12 levels, test 2 ([2]; C57BL/6, serum, hour 0): 5
- IL-12 levels, average ([2]; C57BL/6, serum, hour 2): 161.5
- IL-12 levels, test 1 ([2]; C57BL/6, serum, hour 2): 178
- IL-12 levels, test 2 ([2]; C57BL/6, serum, hour 2): 145
- IL-12 levels, average ([2]; C57BL/6, serum, hour 6): 1363.5
- IL-12 levels, test 1 ([2]; C57BL/6, serum, hour 6): 1488
- IL-12 levels, test 2 ([2]; C57BL/6, serum, hour 6): 1239
- IL-12 levels, average ([2]; C57BL/6, serum, hour 12): 1818.5
- IL-12 levels, test 1 ([2]; C57BL/6, serum, hour 12): 1692
- IL-12 levels, test 2 ([2]; C57BL/6, serum, hour 12): 1945
- IL-12 levels, average ([2]; C57BL/6, serum, hour 24): 323
- IL-12 levels, test 1 ([2]; C57BL/6, serum, hour 24): 44
- IL-12 levels, test 2 ([2]; C57BL/6, serum, hour 24): 602
- IL-12 levels, average ([2]; C57BL/6, serum, hour 48): 250
- IL-12 levels, test 1 ([2]; C57BL/6, serum, hour 48): 500
- IL-12 levels, test 2 ([2]; C57BL/6, serum, hour 48): 0
- IL-12 levels, average ([2]; C57BL/6, serum, hour 72): 45.5
- IL-12 levels, test 1 ([2]; C57BL/6, serum, hour 72): 91
- IL-12 levels, test 2 ([2]; C57BL/6, serum, hour 72): 0
- IL-12 levels, Total ([2]; C57BL/6, serum, total over hours 0-72): 3969
- IL-4 level, average ([3]; hour 0): 27
- IL-4 level, test 1 ([3]; hour 0): 27
- IL-4 level, test 2 ([3]; hour 0): 27
- IL-4 level, average ([3]; hour 2): 330
- IL-4 level, test 1 ([3]; hour 2): 263
- IL-4 level, test 2 ([3]; hour 2): 397
- IL-4 level, average ([3]; hour 6): 127
- IL-4 level, test 1 ([3]; hour 6): 90
- IL-4 level, test 2 ([3]; hour 6): 164
- IL-4 level, average ([3]; hour 12): 49.5
- IL-4 level, test 1 ([3]; hour 12): 48
- IL-4 level, test 2 ([3]; hour 12): 51
- IL-4 level, average ([3]; hour 24): 45.5
- IL-4 level, test 1 ([3]; hour 24): 43
- IL-4 level, test 2 ([3]; hour 24): 48
- IL-4 level, average ([3]; hour 48): 40.5
- IL-4 level, test 1 ([3]; hour 48): 42
- IL-4 level, test 2 ([3]; hour 48): 39
- IL-4 level, average ([3]; hour 72): 2
- IL-4 level, test 1 ([3]; hour 72): 2
- IL-4 level, test 2 ([3]; hour 72): 2
- IL-4 level, Total ([3]; total over hours 0-72): 623
- IL-4 level, average ([4]; hour 0): 46
- IL-4 level, test 1 ([4]; hour 0): 46
- IL-4 level, test 2 ([4]; hour 0): 46
- IL-4 level, average ([4]; hour 2): 443
- IL-4 level, test 1 ([4]; hour 2): 286
- IL-4 level, test 2 ([4]; hour 2): 600
- IL-4 level, average ([4]; hour 6): 110
- IL-4 level, test 1 ([4]; hour 6): 95
- IL-4 level, test 2 ([4]; hour 6): 125
- IL-4 level, average ([4]; hour 12): 56.5
- IL-4 level, test 1 ([4]; hour 12): 45
- IL-4 level, test 2 ([4]; hour 12): 68
- IL-4 level, average ([4]; hour 24): 52
- IL-4 level, test 1 ([4]; hour 24): 46
- IL-4 level, test 2 ([4]; hour 24): 58
- IL-4 level, average ([4]; hour 48): 56
- IL-4 level, test 1 ([4]; hour 48): 60
- IL-4 level, test 2 ([4]; hour 48): 52
- IL-4 level, average ([4]; hour 72): 61.5
- IL-4 level, test 1 ([4]; hour 72): 59
- IL-4 level, test 2 ([4]; hour 72): 64
- IL-4 level, Total ([4]; total over hours 0-72): 826
